Patent publication US6355640B1, “Pyrazolopyridine adenosine antagonists” (Fujisawa Pharmaceutical Co., Ltd., priority 1993, dated 2002)
Marks after values point to notes of the source that are not given here.

What was measured:
[1] = test system: cisplatin induced renal failure; experiment: Test 2. Effect on Cisplatin-induced Renal Failure; type: in vivo; settings: Male JCL:SD rats, cisplatin 4.5 mg/kg i.p. 60 minutes after first dose; test compound 0.1 mg/kg i.v. twice a day for 8 days; measured on the 8th day; mean; P < 0.05 vs control group
Experimental: Male JCL:SD strain rats aged 9 weeks weighing 280-300 g received cisplatin (4.5 mg/kg) intraperitoneally. Normal rats were injected with an equal amount of saline instead of cisplatin. The effect of chronic intravenous administration of the test compound (0.1 mg/kg, twice a day) on cisplatin induced renal failure was investigated in rats. […] The plasma creatinine concentrations were measured in all rats on the 8th day.

[2] = test system: cisplatin induced renal failure; experiment: Test 1. Effect on Cisplatin-induced Renal Failure; type: in vivo; settings: Male JCL:SD rats, cisplatin 4.5 mg/kg i.p. at the same time as first dose; test compound 0.1 mg/kg i.v. twice a day for 3 days; measured on the 8th day; mean; p < 0.01 vs control group
Experimental: Male JCL:SD strain rats aged 9 weeks weighing 280-300 g received cisplatin (4.5 mg/kg) intraperitoneally. Normal rats were injected with an equal amount of saline instead of cisplatin. The effect of repeated intravenous administration of the test compound (0.1 mg/kg, twice a day) on cisplatin induced renal failure was investigated in rats. Cisplatin was given at the same time of the first dose of the test compound (for the test group) or vehicle (saline) (for the control group), and the test compound or vehicle was given for 3 days. The plasma creatinine concentrations were measured in all rats on the 8th day.

melting point [°C] | SMILES | also measured
 | O=C(O)CC1=C(n2nc(-c3c(-c4ccccc4)nn4ccccc34)ccc2=O)CCCC1 [Example 58, 3-[2-(2-carboxymethyl-1-cyclohexenyl)-3-oxo-2,3-dihydropyridazin-6-yl]-2-phenylpyrazolo[1,5-a]pyridine] | serum creatinine [1]: 1.10* mg/dl
 | O=C(O)CC1=C(n2nc(-c3c(-c4ccccc4)nn4ccccc34)ccc2=O)CCCCC1 [Example 19, 3-[2-(2-carboxymethyl-1-cycloheptenyl)-3-oxo-2,3-dihydropyridazin-6-yl]-2-phenylpyrazolo[1,5-a]-pyridine] | serum creatinine [2]: 1.32** mg/dl
296 to 298 | O=c1ccc(-c2c(-c3ccccc3)nn3ccccc23)nn1[C@H]1CC[C@@H](C(=O)O)CC1 [Example 47(1), cis-3-[2-(4-Carboxycyclohexyl)-3-oxo-2,3-dihydropyridazin-6-yl]-2-phenylpyrazolo[1,5-a]pyridine] | 
129 to 131 | O=c1ccc(-c2c(-c3ccccc3)nn3ccccc23)nn1C1CCCCC1=Cc1nnn[nH]1 (stereo not drawn) [Example 111, 3-[2-{2-(1H-tetrazol-5-yl)methylenecyclohexyl}-3-oxo-2,3-dihydropyridazin-6-yl]-2-phenylpyrazolo[1,5-a]pyridine] | 
115 to 117 | O=c1ccc(-c2c(-c3ccccc3)nn3ccccc23)nn1C1CCCCC1 [Example 1, 3-(2-cyclohexyl-3-oxo-2,3-dihydropyridazin-6-yl)-2-phenylpyrazolo[1,5-a]pyridine] | 
164 to 165 | COC(=O)[C@@H]1CC[C@H](n2nc(-c3c(-c4ccccc4)nn4ccccc34)ccc2=O)C(=O)C1 (relative stereo) [Example 10, cis-3-[2-(4-Methoxycarbonyl-2-oxocyclohexyl)-3-oxo-2,3-dihydropyridazin-6-yl]-2-phenylpyrazolo[1,5-a]pyridine] | 
158 | COc1ccc(-n2nc(-c3c(-c4ccccc4)nn4ccccc34)ccc2=O)cc1 [Example 100, 3-[2-(4-Methoxyphenyl)-3-oxo-2,3-dihydropyridazin-6-yl]-2-phenylpyrazolo[1,5-a]pyridine] | 
117 to 118 | O=c1ccc(-c2c(-c3ccccc3)nn3ccccc23)nn1C1CCCC(O)C1 (stereo not drawn) [Example 104, 3-[2-(3-hydroxycyclohexyl)-3-oxo-2,3-dihydropyridazin-6-yl]-2-phenylpyrazolo[1,5-a]pyridine] | 

SMILES | melting point [°C] | also measured
CC(C)(C)OC(=O)/C=C1/CCCCC1n1nc(-c2c(-c3ccccc3)nn3ccccc23)ccc1=O (stereo not drawn) [Example 98, (Z)-3-[2-{2-(tert-butoxycarbonyl-methylene)cyclohexyl}-3-oxo-2,3-dihydropyridazin-6-yl]-2-phenylpyrazolo[1,5-a]pyridine] | 171 to 172 | 
